Measured values: US7964628B2, “Fibrinogen receptor antagonists and their use” (Piramal Life Sciences Limited, priority 2003, dated 2011)
Structures can show the parent of a compound that is named as a salt.

| SMILES | melting point |
| --- | --- |
| CCOC(=O)COC1CCN(C(=O)CCN2Cc3cc(C(=N)NO)ccc3C2=O)CC1 [Example 69, (1-{3-[5-(N-Hydroxycarbamimidoyl)-1-oxo-1,3-dihydro-isoindol-2-yl]-propionyl}-piperidin-4-yloxy)-acetic acid ethyl ester] | 151 to 152 °C |
| CC(C)COC(=O)COc1ccc(C(=O)CN2Cc3cc(C(=N)NC(=O)OCc4ccccc4)ccc3C2=O)cc1 [Example 13, (4-{2-[5-(Benzyloxycarbonylamino-imino-methyl)-1-oxo-1,3-dihydro-isoindol-2-yl]-acetyl}-phenoxy)-acetic acid isobutyl ester] | 139 to 140 °C |
| CCOC(=O)COc1ccc(C(=O)CN2Cc3cc(C(=N)N)ccc3C2=O)c(O)c1 (as salt: salt) [Example 41, (4-{2-[5-Carbamimidoyl-1-oxo-1,3-dihydro-isoindol-2-yl]-acetyl}-3-hydroxy-phenoxy)-acetic acid ethyl ester] | 195 to 196 °C |
| CCOC(=O)COc1ccc(C(=O)CN2Cc3cc(C(=N)NO)ccc3C2=O)cc1S(=O)(=O)CC [Example 36, (2-Ethanesulfonyl-4-{2-[5-(N-hydroxycarbamimidoyl)-1-oxo-1,3-dihydro-isoindol-2-yl]-acetyl}-phenoxy)-acetic acid ethyl ester] | 196 to 197 °C |
| CCOC(=O)COc1ccc(C(=O)CN2Cc3cc(C(=N)NC(=O)OCC(C)C)ccc3C2=O)cc1Cl [Example 31, (2-Chloro-4-{2-[5-(imino-isobutoxycarbonylamino-methyl)-1-oxo-1,3-dihydro-isoindol-2-yl]-acetyl}-phenoxy)-acetic acid ethyl ester] | 178 to 179 °C |
| CCOC(=O)COc1ccc(C(=O)CN2Cc3cc(NC(C)=N)ccc3C2=O)c(O)c1 (as salt: iodide) (hydrate or solvate) [Example 74, (4-{2-[5-Acetimidoylamino-1-oxo-1,3-dihydro-isoindol-2-yl]-acetyl}-3-hydroxy-phenoxy)-acetic acid ethyl ester] | 196 to 197 °C |
| COC(=O)NC(=N)c1ccc2c(c1)CN(CC(=O)c1ccc(OCC(=O)OCc3ccccc3)cc1)C2=O (hydrate or solvate) [Example 18, (4-{2-[5-(Imino-methoxycarbonylamino-methyl)-1-oxo-1,3-dihydro-isoindol-2-yl]-acetyl}-phenoxy)-acetic acid benzyl ester] | 184 to 186 °C |
| COC(=O)COc1ccc(C(=O)CN2Cc3cc(C(=N)N)ccc3C2=O)cc1 (as salt: salt) [Example 1, (4-{2-[5-Carbamimidoyl-1-oxo-1,3-dihydro-isoindol-2-yl]-acetyl}-phenoxy)-acetic acid methyl ester] | 181 to 182 °C |
| CC(C)OC(=O)COc1ccc(C(=O)CN2Cc3cc(C(=N)NC(=O)OCc4ccccc4)ccc3C2=O)cc1 (hydrate or solvate) [Example 8, (4-{2-[5-(Benzyloxycarbonylamino-imino-methyl)-1-oxo-1,3-dihydro-isoindol-2-yl]-acetyl}-phenoxy)-acetic acid isopropyl ester] | 156 to 158 °C |
| CCOC(=O)COc1ccc(C(=O)CN2Cc3cc(C(=N)N)ccc3C2=O)cc1SCC (as salt: salt) (hydrate or solvate) [Example 33, (4-{2-[5-Carbamimidoyl-1-oxo-1,3-dihydro-isoindol-2-yl]-acetyl}-2-ethylsulfanyl-phenoxy)-acetic acid ethyl ester] | 185 to 186 °C |
| N=C(N)c1ccc2c(c1)CN(CC(=O)c1ccc(OCC(=O)OCc3ccccc3)cc1)C2=O (as salt: salt) (hydrate or solvate) [Example 16, (4-{2-[5-Carbamimidoyl-1-oxo-1,3-dihydro-isoindol-2-yl]-acetyl}-phenoxy)-acetic acid benzyl ester] | 190 °C (dec.) |
| CC(C)COC(=O)COc1ccc(C(=O)CN2Cc3cc(C(=N)N)ccc3C2=O)cc1OCC(=O)OCC(C)C (as salt: hydroiodid) [Example 24, (4-{2-[5-Carbamimidoyl-1-oxo-1,3-dihydro-isoindol-2-yl]-acetyl}-2-isobutoxycarbonylmethoxy-phenoxy)acetic acid isobutyl ester] | 95 to 96 °C |
| CC(C)COC(=O)NC(=N)c1ccc2c(c1)CN(CC(=O)c1ccc(OCC(=O)OCc3ccccc3)cc1)C2=O (hydrate or solvate) [Example 19, (4-{2-[5-(Imino-isobutoxycarbonylamino-methyl)-1-oxo-1,3-dihydro-isoindol-2-yl]-acetyl}-phenoxy)-acetic acid benzyl ester] | 162 to 163 °C |
| CCOC(=O)COC1CCN(C(=O)CN2Cc3cc(C(=N)NO)ccc3C2=O)CC1 [Example 68, (1-{2-[5-(N-Hydroxycarbamimidoyl)-1-oxo-1,3-dihydro-isoindol-2-yl]-acetyl}-piperidin-4-yloxy)-acetic acid ethyl ester] | 204 to 206 °C |
| CC(C)COC(=O)COc1ccc(C(=O)CN2Cc3cc(C(=N)NS(C)(=O)=O)ccc3C2=O)cc1 [Example 14, (4-{2-[5-(Imino-methanesulfonylamino-methyl)-1-oxo-1,3-dihydro-isoindol-2-yl]-acetyl}-phenoxy)-acetic acid isobutyl ester] | 177 to 178 °C |
| CCOC(=O)COc1ccc(C(=O)CN2Cc3cc(C(=N)N)ccc3C2=O)cc1Cl (as salt: salt) [Example 30, (4-{2-[5-Carbamimidoyl-1-oxo-1,3-dihydro-isoindol-2-yl]-acetyl}-2-chloro-phenoxy)-acetic acid ethyl ester] | 172 to 173 °C |
| CCOC(=O)COc1ccc(C(=O)CN2Cc3cc(C(=N)NO)ccc3C2=O)c(O)c1C (hydrate or solvate) [Example 55, (3-Hydroxy-4-{2-[5-(N-hydroxycarbamimidoyl)-1-oxo-1,3-dihydro-isoindol-2-yl]-acetyl}-2-methyl-phenoxy)-acetic acid ethyl ester] | 226 to 228 °C |
| CCOC(=O)COc1cc(O)c(C(=O)CN2Cc3cc(C(=N)NO)ccc3C2=O)c(OC)c1 [Example 62, (3-Hydroxy-4-{2-[5-(N-hydroxycarbamimidoyl)-1-oxo-1,3-dihydro-isoindol-2-yl]-acetyl}-5-methoxy-phenoxy)-acetic acid ethyl ester] | 209 to 210 °C |
| CC(C)OC(=O)COc1ccc(C(=O)CN2Cc3cc(C(=N)NO)ccc3C2=O)cc1 (hydrate or solvate) [Example 9, (4-{2-[5-(N-Hydroxycarbamimidoyl)-1-oxo-1,3-dihydro-isoindol-2-yl]-acetyl}-phenoxy)-acetic acid isopropyl ester] | 164 to 166 °C |
| COC(=O)NC(=N)c1ccc2c(c1)CN(CC(=O)c1ccc(OCC(=O)OCC(C)C)cc1)C2=O [Example 11, (4-{2-[5-(Imino-methoxycarbonylamino-methyl)-1-oxo-1,3-dihydro-isoindol-2-yl]-acetyl}-phenoxy)-acetic acid isobutyl ester] | 162 to 163 °C |
| Cc1c(OCC(=O)OCc2ccccc2)ccc(C(=O)CN2Cc3cc(C(=N)NO)ccc3C2=O)c1O (hydrate or solvate) [Example 56, (3-Hydroxy-4-{2-[5-(N-hydroxycarbamimidoyl)-1-oxo-1,3-dihydro-isoindol-2-yl]-acetyl}-2-methyl-phenoxy)-acetic acid benzyl ester] | 200 °C |
| CCOC(=O)COc1ccc(C(=O)CN2Cc3cc(C(=N)N)ccc3C2=O)cc1S(=O)(=O)CC (as salt: salt) (hydrate or solvate) [Example 35, (4-{2-[5-Carbamimidoyl-1-oxo-1,3-dihydro-isoindol-2-yl]-acetyl}-2-ethanesulfonyl-phenoxy)-acetic acid ethyl ester] | 174 to 175 °C |
| CCOC(=O)COc1ccc(C(=O)CN2Cc3cc(C(=N)NO)ccc3C2=O)c(OCC(=O)OCC)c1 [Example 48, (3-Ethoxycarbonylmethoxy-4-{2-[5-(N-hydroxycarbamimidoyl)-1-oxo-1,3-dihydro-isoindol-2-yl]-acetyl}-phenoxy)-acetic acid ethyl ester] | 139 to 140 °C |
| CCOC(=O)COc1cc(O)c(C(=O)CN2Cc3cc(C(=N)NO)ccc3C2=O)cc1C(C)C [Example 51, (5-Hydroxy-4-{2-[5-(N-hydroxycarbamimidoyl)-1-oxo-1,3-dihydro-isoindol-2-yl]-acetyl}-2-isopropyl-phenoxy)-acetic acid ethyl ester] | 207 to 209 °C |
| CCOC(=O)COc1ccc(C(=O)CN2Cc3cc(C(=N)NO)ccc3C2=O)cc1OCC(=O)OCC [Example 21, (2-Ethoxycarbonylmethoxy-4-{2-[5-(N-hydroxycarbamimidoyl)-1-oxo-1,3-dihydro-isoindol-2-yl]-acetyl}-phenoxy)-acetic acid ethyl ester] | 163 to 164 °C |
| N=C(N)c1ccc2c(c1)CN(CC(=O)c1ccc(OCC(=O)OC3CCN(C(=O)OCc4ccccc4)CC3)cc1)C2=O (hydrate or solvate) [Example 26, 4-(2-{4-[2-(5-Carbamimidoyl-1-oxo-1,3-dihydro-isoindol-2-yl)-acetyl]-phenoxy}-acetoxy)-piperidine-1-carboxylic acid benzyl ester] | 180 to 181 °C |
| CCOC(=O)COc1ccc(C(=O)CN2Cc3cc(C(=N)NO)ccc3C2=O)cc1 (hydrate or solvate) [Example 4, (4-{2-[5-(N-Hydroxycarbamimidoyl)-1-oxo-1,3-dihydro-isoindol-2-yl]-acetyl}-phenoxy)-acetic acid ethyl ester] | 175 to 178 °C |
| CCOC(=O)COc1ccc(C(=O)CN2Cc3cc(C(=N)NO)ccc3C2=O)c(O)c1OCC(=O)OCC [Example 64, (2-Ethoxycarbonylmethoxy-3-hydroxy-4-{2-[5-(N-hydroxycarbamimidoyl)-1-oxo-1,3-dihydro-isoindol-2-yl]-acetyl}-phenoxy)-acetic acid ethyl ester] | 153 to 155 °C |
| CCOC(=O)COc1cc(O)c(C(=O)CN2Cc3cc(C(=N)NO)ccc3C2=O)cc1Cl (hydrate or solvate) [Example 53, (2-Chloro-5-hydroxy-4-{2-[5-(N-hydroxycarbamimidoyl)-1-oxo-1,3-dihydro-isoindol-2-yl]-acetyl}-phenoxy)-acetic acid ethyl ester] | 227 to 228 °C |
